Assay results taken from ChEMBL document CHEMBL1201862, “PubChem BioAssay data set” (2004).
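Exposure lasted 48 hours, with cells grown in 96-well plates and compounds tested at five concentrations. GI50 marks 50% less growth.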 Active and inactive are the calls of the source. Cut-off read from the data, not from the text of the source: active = GI50 up to about 1.1 µM and inactive = higher.

How the values were obtained:
Assay in all cases: NCI anticancer screen, dose series, 48 h
SK-MEL-2 = test system: SK-MEL-2
CAKI-1 = test system: CAKI-1
UACC-62 = test system: UACC-62
MOLT-4 = test system: MOLT-4
NCI-H226 = test system: NCI-H226
HL-60 = test system: HL-60
SNB-75 = test system: SNB-75
LOX IMVI = test system: LOX IMVI
Hs-578T = test system: Hs-578T
MDA-MB-231 = test system: MDA-MB-231
A498 = test system: A498
RPMI-8226 = test system: RPMI-8226
OVCAR-8 = test system: OVCAR-8
TK-10 = test system: TK-10
OVCAR-3 = test system: OVCAR-3
SF-539 = test system: SF-539
IGROV-1 = test system: IGROV-1
OVCAR-5 = test system: OVCAR-5
SW-620 = test system: SW-620
T47D = test system: T47D

| Compound | GI50 (SK-MEL-2) | GI50 (CAKI-1) | GI50 (UACC-62) | GI50 (MOLT-4) | GI50 (NCI-H226) | GI50 (HL-60) | GI50 (SNB-75) | GI50 (LOX IMVI) | GI50 (Hs-578T) | GI50 (MDA-MB-231) | GI50 (A498) | GI50 (RPMI-8226) | GI50 (OVCAR-8) | GI50 (TK-10) | GI50 (OVCAR-3) | GI50 (SF-539) | GI50 (IGROV-1) | GI50 (OVCAR-5) | GI50 (SW-620) | GI50 (T47D) |
| --- | --- | --- | --- | --- | --- | --- | --- | --- | --- | --- | --- | --- | --- | --- | --- | --- | --- | --- | --- | --- |
| COC1N(C2CC(O)C(CO)O2)C(=O)NC(=O)C1(F)Br (stereo not given) | > 92 µM (inactive) | > 19.9 µM (inactive) | 4.27 µM (inactive) | 11 µM (inactive) | > 50 µM (inactive) | > 50 µM (inactive) | 36.1 µM (inactive) | 6.1 µM (inactive) | 24.5 µM (inactive) | > 57.1 µM (inactive) | 9.29 µM (inactive) | 19.3 µM (inactive) | 4.02 µM (inactive) | > 100 µM (inactive) | 10.7 µM (inactive) | 0.239 µM (active) | 14.1 µM (inactive) | 77.8 µM (inactive) | 32.8 µM (inactive) | > 72.3 µM (inactive) |
| Cc1ccc2c(c1)OC1Nc3ccccc3C1=C2O (stereo not given) | 16.9 µM (inactive) | 23.2 µM (inactive) | 15.9 µM (inactive) | 32.1 µM (inactive) | 20.7 µM (inactive) | 16.2 µM (inactive) | 23.2 µM (inactive) | 23.8 µM (inactive) | 73.8 µM (inactive) | 20.6 µM (inactive) | 15.5 µM (inactive) | 28 µM (inactive) | 35 µM (inactive) | 22.9 µM (inactive) | 3.86 µM (inactive) | 20.1 µM (inactive) | 29.9 µM (inactive) | 32.6 µM (inactive) | 29.2 µM (inactive) | 20.3 µM (inactive) |
| CSC1=C(C(=O)Nc2ccc(Cl)cc2)C(N)=NC1=O | > 100 µM (inactive) | 29 µM (inactive) | > 100 µM (inactive) | > 100 µM (inactive) | > 100 µM (inactive) | > 100 µM (inactive) | > 100 µM (inactive) | > 100 µM (inactive) | > 100 µM (inactive) | > 100 µM (inactive) | > 100 µM (inactive) | > 100 µM (inactive) | > 100 µM (inactive) | > 100 µM (inactive) | > 100 µM (inactive) | > 100 µM (inactive) | 19.7 µM (inactive) | > 100 µM (inactive) | > 100 µM (inactive) | > 100 µM (inactive) |
| Nc1c(O)c(C(=O)O)cc2ccccc12 | 17.7 µM (inactive) | 22.6 µM (inactive) | 17 µM (inactive) | 29.8 µM (inactive) | 30.1 µM (inactive) | 32.7 µM (inactive) | 24.3 µM (inactive) | 10.6 µM (inactive) | 37 µM (inactive) | 15.3 µM (inactive) | > 100 µM (inactive) | 33.3 µM (inactive) | 44.3 µM (inactive) | 98.4 µM (inactive) | 24.3 µM (inactive) | 40.6 µM (inactive) | > 100 µM (inactive) | 18.9 µM (inactive) | 18.3 µM (inactive) | 37 µM (inactive) |
| Cc1cc(-c2c(F)cc3c4nn([C@H]5CC[C@@H](N(C)C)CC5)c(=O)c-4cn(C4CC4)c3c2F)cc(C)n1 | 0.82 µM (active) | 0.0519 µM (active) | 0.159 µM (active) | < 0.0316 µM (active) | 0.101 µM (active) | 0.0383 µM (active) | 0.0512 µM (active) | 0.0998 µM (active) | 0.173 µM (active) | 0.536 µM (active) | 0.0229 µM (active) | 1.11 µM (active) | 0.221 µM (active) | 0.519 µM (active) | 0.805 µM (active) | 0.177 µM (active) | 1.66 µM (inactive) | 1.42 µM (inactive) | 0.195 µM (active) | 0.347 µM (active) |
| C=CCc1cc(-c2cc(CC=C)c(O)c(CN(CC)CC)c2)cc(CN(CC)CC)c1O | 26.9 µM (inactive) | 50.2 µM (inactive) | 22.2 µM (inactive) | 39.9 µM (inactive) | 48.9 µM (inactive) | 35.4 µM (inactive) | > 100 µM (inactive) | 16 µM (inactive) | 28.5 µM (inactive) | 26 µM (inactive) | > 100 µM (inactive) | 27.5 µM (inactive) | > 96.6 µM (inactive) | 62.7 µM (inactive) | 64 µM (inactive) | 21.4 µM (inactive) | > 67.6 µM (inactive) | 18.8 µM (inactive) | 25.5 µM (inactive) | 43 µM (inactive) |
| COC(=O)C1=C(C(=O)OC)SC2(S1)C(C(=O)OC)=C(C(=O)OC)Sc1c2ssc1=O | 1.78 µM (inactive) | 1.43 µM (inactive) | 0.526 µM (active) | 0.353 µM (active) | 1.48 µM (inactive) | 0.016 µM (active) | 4.01 µM (inactive) | 0.208 µM (active) | 5.18 µM (inactive) | 1.67 µM (inactive) | 1.64 µM (inactive) | 0.982 µM (active) | 1.34 µM (inactive) | 1.58 µM (inactive) | 0.904 µM (active) | 1.15 µM (inactive) | 1.65 µM (inactive) | 2.11 µM (inactive) | 0.661 µM (active) | 1.12 µM (active) |
| Cc1c2cc[n+](C)c(C)c2cc2c1[nH]c1ccccc12 | 6.73 µM (inactive) | 31.3 µM (inactive) | 11.3 µM (inactive) | 4.05 µM (inactive) | 1.69 µM (inactive) | 16.9 µM (inactive) | 1.19 µM (inactive) | 21.7 µM (inactive) | 0.818 µM (active) | 2.51 µM (inactive) | 70.5 µM (inactive) | 6.07 µM (inactive) | 2.82 µM (inactive) | > 89.3 µM (inactive) | 5 µM (inactive) | 2.96 µM (inactive) | 7.98 µM (inactive) | 19.2 µM (inactive) | 8.09 µM (inactive) | 2.14 µM (inactive) |
| C=C(C)C12CC3CC/C(=N/O)C(C1)C3(N1CCOCC1)C/C2=N/O (stereo not given) | > 100 µM (inactive) | > 100 µM (inactive) | > 100 µM (inactive) | > 100 µM (inactive) | > 100 µM (inactive) | > 100 µM (inactive) | > 100 µM (inactive) | > 100 µM (inactive) | > 100 µM (inactive) | > 100 µM (inactive) | > 100 µM (inactive) | > 100 µM (inactive) | > 100 µM (inactive) | > 100 µM (inactive) | > 100 µM (inactive) | > 100 µM (inactive) | > 100 µM (inactive) | > 100 µM (inactive) | > 100 µM (inactive) | > 100 µM (inactive) |
| CSC(=N\c1ccccc1)/N=C(\SCc1ccccc1)N(C)C | 1.87 µM (inactive) | 0.927 µM (active) | 0.555 µM (active) | 0.382 µM (active) | 1.49 µM (inactive) | 0.172 µM (active) | 1.62 µM (inactive) | 0.189 µM (active) | 0.859 µM (active) | 1.17 µM (inactive) | 1.65 µM (inactive) | 0.218 µM (active) | 1.2 µM (inactive) | 1.15 µM (inactive) | 0.869 µM (active) | 1.28 µM (inactive) | 0.923 µM (active) | 1.49 µM (inactive) | 0.312 µM (active) | 0.427 µM (active) |
| C=C1CC2(CC(c3ccccc3OC)OC(c3ccccc3OC)C2)OC1=O (stereo not given) | 1.91 µM (inactive) | 2.47 µM (inactive) | 2.18 µM (inactive) | 2.07 µM (inactive) | 8.41 µM (inactive) | 0.771 µM (active) | 2.59 µM (inactive) | 1.47 µM (inactive) | 2.02 µM (inactive) | 1.77 µM (inactive) | 5.81 µM (inactive) | 0.25 µM (active) | 1.8 µM (inactive) | 1.71 µM (inactive) | 1.87 µM (inactive) | 2.15 µM (inactive) | 1.74 µM (inactive) | 7.46 µM (inactive) | 1.72 µM (inactive) | 1.72 µM (inactive) |
| COc1cc2c(NCCCCCO)ncnc2c(OC)c1OC | > 100 µM (inactive) | > 100 µM (inactive) | > 100 µM (inactive) | > 100 µM (inactive) | 43.9 µM (inactive) | > 100 µM (inactive) | > 100 µM (inactive) | > 100 µM (inactive) | > 100 µM (inactive) | 95.5 µM (inactive) | > 100 µM (inactive) | > 93.1 µM (inactive) | > 100 µM (inactive) | > 100 µM (inactive) | > 100 µM (inactive) | > 100 µM (inactive) | > 100 µM (inactive) | > 100 µM (inactive) | > 100 µM (inactive) | > 96.2 µM (inactive) |
| O=P(Nc1ccccc1)(Oc1ccccc1)N1CCN(c2ccccc2)CC1 (stereo not given) | 20.9 µM (inactive) | 24.8 µM (inactive) | 12.7 µM (inactive) | 17.9 µM (inactive) | 22.3 µM (inactive) | 25 µM (inactive) | 15.2 µM (inactive) | 17.4 µM (inactive) | 17.9 µM (inactive) | 14.9 µM (inactive) | 20.2 µM (inactive) | 40.7 µM (inactive) | 21.9 µM (inactive) | 21.8 µM (inactive) | 18.7 µM (inactive) | 19.5 µM (inactive) | 20.8 µM (inactive) | 17.9 µM (inactive) | 25.4 µM (inactive) | 22.6 µM (inactive) |
| c1sc(NC2=NCCO2)c2c1CCCC2 | > 100 µM (inactive) | > 100 µM (inactive) | > 100 µM (inactive) | 85.5 µM (inactive) | > 100 µM (inactive) | > 100 µM (inactive) | > 100 µM (inactive) | > 100 µM (inactive) | > 100 µM (inactive) | > 100 µM (inactive) | > 100 µM (inactive) | > 100 µM (inactive) | > 100 µM (inactive) | > 100 µM (inactive) | > 100 µM (inactive) | > 100 µM (inactive) | > 100 µM (inactive) | > 100 µM (inactive) | > 100 µM (inactive) | 88.1 µM (inactive) |
